Earlier results in PubChem BioAssay AID1259409 (Chemical Carcinogenesis Research Information System (CCRIS), 2018).

Test system: rodent chemically induced tumor inhibition, incidence and multiplicity
Assay: CCRIS tumor inhibitor studies
Settings: Species: RAT

## O=C(O)O
Carcinogen: AZOXYMETHANE, 25843-45-2, Dose [Inhibitor]: 0, 2% IN DIET FOR 13 WK BEGINNING 36 WK POST LAST CARCINOGEN DOSE (STUDY DURATION: 49 WK), Route [Inhibitor]: ORAL, Strain/Sex: F344/MALE, Target Tissue: Type of Lesion: COLON: ADENOCARCINOMA, Dose [Carcinogen]: 12 MG/KG BW IN 0.9% SALINE TWICE, Promoter: CHOLIC ACID, 81-25-4
  tumour outcome (control, treated, inhibition, significance): 26%, 31%, -19%, not significant
Carcinogen: AZOXYMETHANE, 25843-45-2, Dose [Inhibitor]: 0, 2% IN DIET FOR 13 WK BEGINNING 36 WK POST LAST CARCINOGEN DOSE (STUDY DURATION: 49 WK), Route [Inhibitor]: ORAL, Strain/Sex: F344/MALE, Target Tissue: Type of Lesion: COLON: ADENOMA, Dose [Carcinogen]: 12 MG/KG BW IN 0.9% SALINE TWICE, Promoter: CHOLIC ACID, 81-25-4
  tumour outcome (control, treated, inhibition, significance): 81%, 89%, -10%, not significant
Carcinogen: AZOXYMETHANE, 25843-45-2, Dose [Inhibitor]: 0, 2% IN DIET FOR 13 WK BEGINNING 36 WK POST LAST CARCINOGEN DOSE (STUDY DURATION: 49 WK), Route [Inhibitor]: ORAL, Strain/Sex: F344/MALE, Target Tissue: Type of Lesion: SMALL INTESTINE: ADENOCARCINOMA, Dose [Carcinogen]: 12 MG/KG BW IN 0.9% SALINE TWICE, Promoter: CHOLIC ACID, 81-25-4
  tumour outcome (control, treated, inhibition, significance): 23%, 14%, 39%, not significant
Carcinogen: AZOXYMETHANE, 25843-45-2, Dose [Inhibitor]: 0, 2% IN DIET FOR 13 WK BEGINNING 36 WK POST LAST CARCINOGEN DOSE (STUDY DURATION: 49 WK), Route [Inhibitor]: ORAL, Strain/Sex: F344/MALE, Target Tissue: Type of Lesion: SMALL INTESTINE: ADENOMA, Dose [Carcinogen]: 12 MG/KG BW IN 0.9% SALINE TWICE, Promoter: CHOLIC ACID, 81-25-4
  tumour outcome (control, treated, inhibition, significance): 17%, 14%, 18%, not significant
Carcinogen: AZOXYMETHANE, 25843-45-2, Dose [Inhibitor]: 0, 2% IN DIET FOR 34 WK BEGINNING 1 WK POST LAST CARCINOGEN DOSE (STUDY DURATION: 49 WK), Route [Inhibitor]: ORAL, Strain/Sex: F344/MALE, Target Tissue: Type of Lesion: COLON: ADENOCARCINOMA, Dose [Carcinogen]: 12 MG/KG BW IN 0.9% SALINE TWICE, Promoter: CHOLIC ACID, 81-25-4
  tumour outcome (control, treated, inhibition, significance): 26%, 18%, 31%, not significant
Carcinogen: AZOXYMETHANE, 25843-45-2, Dose [Inhibitor]: 0, 2% IN DIET FOR 34 WK BEGINNING 1 WK POST LAST CARCINOGEN DOSE (STUDY DURATION: 49 WK), Route [Inhibitor]: ORAL, Strain/Sex: F344/MALE, Target Tissue: Type of Lesion: COLON: ADENOMA, Dose [Carcinogen]: 12 MG/KG BW IN 0.9% SALINE TWICE, Promoter: CHOLIC ACID, 81-25-4
  tumour outcome (control, treated, inhibition, significance): 81%, 59%, 27%, p<0.05
Carcinogen: AZOXYMETHANE, 25843-45-2, Dose [Inhibitor]: 0, 2% IN DIET FOR 34 WK BEGINNING 1 WK POST LAST CARCINOGEN DOSE (STUDY DURATION: 49 WK), Route [Inhibitor]: ORAL, Strain/Sex: F344/MALE, Target Tissue: Type of Lesion: SMALL INTESTINE: ADENOCARCINOMA, Dose [Carcinogen]: 12 MG/KG BW IN 0.9% SALINE TWICE, Promoter: CHOLIC ACID, 81-25-4
  tumour outcome (control, treated, inhibition, significance): 23%, 16%, 30%, not significant
Carcinogen: AZOXYMETHANE, 25843-45-2, Dose [Inhibitor]: 0, 2% IN DIET FOR 34 WK BEGINNING 1 WK POST LAST CARCINOGEN DOSE (STUDY DURATION: 49 WK), Route [Inhibitor]: ORAL, Strain/Sex: F344/MALE, Target Tissue: Type of Lesion: SMALL INTESTINE: ADENOMA, Dose [Carcinogen]: 12 MG/KG BW IN 0.9% SALINE TWICE, Promoter: CHOLIC ACID, 81-25-4
  tumour outcome (control, treated, inhibition, significance): 17%, 7%, 59%, not significant
Carcinogen: N-BUTYL-N-(4-HYDROXYBUTYL)NITROSAMINE, 3817-11-6, Dose [Inhibitor]: 5% DIET DAILY FOR 34 WK STARTING AFTER CARCINOGEN TREATMENT (STUDY DURATION: 38 WK), Route [Inhibitor]: ORAL, Strain/Sex: F344/MALE, Target Tissue: Type of Lesion: URINARY BLADDER: PAPILLOMA, Dose [Carcinogen]: 0.01% IN DRINKING WATER FOR 4 WK, Promoter: NONE USED
  tumour outcome (control, treated, inhibition, significance): 33%, 37%, -12%, not significant
Carcinogen: N-METHYL-N'-NITRO-N-NITROSOGUANIDINE, 70-25-7, Dose [Inhibitor]: 0, 7.5% IN DIET FOR FIRST 20 WK THEN BASAL DIET FOR DURATION OF STUDY (STUDY DURATION: 40 WK), Route [Inhibitor]: ORAL, Strain/Sex: WISTAR/MALE, Target Tissue: Type of Lesion: GLANDULAR STOMACH: ADENOCARCINOMA, Dose [Carcinogen]: 100 MG/L IN DRINKING WATER FOR FIRST 20 WK, Promoter: NONE USED
  tumour outcome (control, treated, inhibition, significance): 3/20 (15%), 3/19 (16%), -7%, not significant
Carcinogen: N-NITROSOMETHYLBENZYLAMINE, 937-40-6, Dose [Inhibitor]: 0, 20000 PPM IN DIET FOR DURATION OF STUDY BEGINNING 1 WK POST CARCINOGEN TREATMENT (STUDY DURATION: 25 WK), Route [Inhibitor]: ORAL, Strain/Sex: F344/MALE, Target Tissue: Type of Lesion: ESOPHAGUS: TUMOR, Dose [Carcinogen]: 1 MG/KG 3/WK FOR 5 WK, Promoter: NONE USED
  tumour outcome (control, treated, inhibition, significance): 15/15 (100%), 14/15 (93%), 7%, not significant
Carcinogen: N-NITROSOMETHYLBENZYLAMINE, 937-40-6, Dose [Inhibitor]: 0, 20000 PPM IN DIET FOR DURATION OF STUDY BEGINNING 2 WK PRIOR TO CARCINOGEN TREATMENT (STUDY DURATION: 25 WK), Route [Inhibitor]: ORAL, Strain/Sex: F344/MALE, Target Tissue: Type of Lesion: ESOPHAGUS: TUMOR, Dose [Carcinogen]: 1 MG/KG 3/WK FOR 5 WK, Promoter: NONE USED
  tumour outcome (control, treated, inhibition, significance): 15/15 (100%), 13/15 (87%), 13%, not significant
Dose [Inhibitor]: 0, 6.2 MG, 2 INJECTIONS ONCE INTO EACH POLE OF RIGHT KIDNEY ADMINISTERED WITH CARCINOGEN (STUDY DURATION: 109 WK), Route [Inhibitor]: INTRARENAL, Strain/Sex: F344/NCR/MALE, Target Tissue: Type of Lesion: KIDNEY: TUMOR, Dose [Carcinogen]: 5 MG, 2 INJECTIONS ONCE INTO EACH POLE OF RIGHT KIDNEY, Promoter: NONE USED
  tumour outcome (control, treated, inhibition, significance): 25/40 (63%), 4/20 (20%), 68%, not calculated
Dose [Inhibitor]: 0, 7.5 UMOL (MG) INJECTED WITH CARCINOGEN INTO THIGH OF BOTH HIND LIMBS (STUDY DURATION: 79 WK), Route [Inhibitor]: INTRAMUSCULAR, Strain/Sex: F344/MALE, Target Tissue: Type of Lesion: INJECTION SITE: SARCOMA, Dose [Carcinogen]: 2.5 MG PER SITE INJECTED INTO THIGH OF BOTH HIND LIMBS ONCE, Promoter: NONE USED
  tumour outcome (control, treated, inhibition, significance): 100%, 100%, 0%, not significant
Dose [Inhibitor]: 0, 15.5 UMOL (MG) INJECTED WITH CARCINOGEN INTO THIGH OF BOTH HIND LIMBS (STUDY DURATION: 79 WK), Route [Inhibitor]: INTRAMUSCULAR, Strain/Sex: F344/MALE, Target Tissue: Type of Lesion: INJECTION SITE: SARCOMA, Dose [Carcinogen]: 2.5 MG PER SITE INJECTED INTO THIGH OF BOTH HIND LIMBS ONCE, Promoter: NONE USED
  tumour outcome (control, treated, inhibition, significance): 100%, 95%, 5%, not significant
Dose [Inhibitor]: 0, 30 UMOL (MG) INJECTED WITH CARCINOGEN INTO THIGH OF BOTH HIND LIMBS (STUDY DURATION: 79 WK), Route [Inhibitor]: INTRAMUSCULAR, Strain/Sex: F344/MALE, Target Tissue: Type of Lesion: INJECTION SITE: SARCOMA, Dose [Carcinogen]: 2.5 MG PER SITE INJECTED INTO THIGH OF BOTH HIND LIMBS ONCE, Promoter: NONE USED
  tumour outcome (control, treated, inhibition, significance): 100%, 55%, 45%, not calculated
Dose [Inhibitor]: 0, 60 UMOL (MG) INJECTED WITH CARCINOGEN INTO THIGH OF BOTH HIND LIMBS (STUDY DURATION: 79 WK), Route [Inhibitor]: INTRAMUSCULAR, Strain/Sex: F344/MALE, Target Tissue: Type of Lesion: INJECTION SITE: SARCOMA, Dose [Carcinogen]: 2.5 MG PER SITE INJECTED INTO THIGH OF BOTH HIND LIMBS ONCE, Promoter: NONE USED
  tumour outcome (control, treated, inhibition, significance): 100%, 60%, 40%, not significant
Dose [Inhibitor]: 0, 120 UMOL (MG) INJECTED INTO NAPE OF NECK (STUDY DURATION: 79 WK), Route [Inhibitor]: SUBCUTANEOUS, Strain/Sex: F344/MALE, Target Tissue: Type of Lesion: INJECTION SITE: SARCOMA, Dose [Carcinogen]: 2.5 MG PER SITE INJECTED INTO THIGH OF BOTH HIND LIMBS, Promoter: NONE USED
  tumour outcome (control, treated, inhibition, significance): 100%, 100%, 0%, not significant
Dose [Inhibitor]: 0, 120 UMOL (MG) INJECTED WITH CARCINOGEN INTO THIGH OF BOTH HIND LIMBS (STUDY DURATION: 79 WK), Route [Inhibitor]: INTRAMUSCULAR, Strain/Sex: F344/MALE, Target Tissue: Type of Lesion: INJECTION SITE: SARCOMA, Dose [Carcinogen]: 2.5 MG PER SITE INJECTED INTO THIGH OF BOTH HIND LIMBS, Promoter: NONE USED
  tumour outcome (control, treated, inhibition, significance): 100%, 55%, 45%, not calculated
